Values of other authors in US9109266B2, “Process of producing sugar composition comprising D-psicose and D-allose via strong alkaline isomerization of D-glucose/D-fructose or alkaline pre-treatment of D-glucose/D-fructose followed by isomerization in the presence of a basic ion exchange resin” (MATSUTANI CHEMICAL INDUSTRY CO., LTD., priority 2009, dated 2015).
Like-named read-outs stand apart in the source and are kept apart here.

Legend:
[1] = for Body fat decrement ratio (%) / Body weight decrement ratio (%) / Feed intake decrement ratio (%): compared with control group; for reduction of blood sugar level / reduction of insulin level: reports 1 and 2
[2] = D-psicose administration; non-patent reference 11
[3] = non-patent reference 10 (report 4)
[4] = Report 1, D-psicose at 5% in total solids
[5] = Report 2, D-allose at 3% in total solids

Compound	Body fat decrement ratio (%) [1, 4]	Body weight decrement ratio (%) [1, 4]	Feed intake decrement ratio (%) [1, 4]	reduction of blood sugar level [1]	reduction of insulin level [1]	intra-day variation of insulin level [2]	Body fat decrement ratio (%) [1, 5]	Body weight decrement ratio (%) [1, 5]	Feed intake decrement ratio (%) [1, 5]	contribution to body weight [3]	contribution to the amount of feed intake [3]
O=C(CO)[C@H](O)[C@H](O)[C@H](O)CO [D-psicose]	15%	6%	6%	No significant reduction	No significant reduction	no reduction of insulin level					
O=C[C@H](O)[C@H](O)[C@H](O)[C@H](O)CO [D-allose]				No significant reduction	No significant reduction		19%	17%	8%		
O=C[C@@H](O)[C@@H](O)[C@H](O)[C@H](O)CO [D-mannose]										never makes any contribution	never makes any contribution
